Several values for one entry are separate records, joined by “and”; a condition that tells them apart may be missing. Equal entries are not always repeated.
Experiments:
MAPK2(h) = MAPK2(h) (Homo sapiens, UniProt P28482); assay: Kinase selectivity panel (residual activity at 1 μM); format: biochemical; conditions: inhibitor at 1 μM; read-out: residual kinase activity in % of maximal activity
PKCα(h) = PKCα(h) (Homo sapiens, UniProt P17252); assay: as above; format: biochemical; conditions: inhibitor at 1 μM; read-out: residual kinase activity in % of maximal activity
CaMKIIγ(h) = CaMKIIγ(h) (Homo sapiens, UniProt Q13555); assay: as above; format: biochemical; conditions: inhibitor at 1 μM; read-out: residual kinase activity in % of maximal activity
IGF-1R(h) = IGF-1R(h) (Homo sapiens, UniProt P08069); assay: as above; format: biochemical; conditions: inhibitor at 1 μM; read-out: residual kinase activity in % of maximal activity
Aurora-C(h) = Aurora-C(h) (Homo sapiens, UniProt Q9UQB9); assay: as above; format: biochemical; conditions: inhibitor at 1 μM; read-out: residual kinase activity in % of maximal activity
PKBγ(h) = PKBγ(h) (Homo sapiens, UniProt Q9Y243); assay: as above; format: biochemical; conditions: inhibitor at 1 μM; read-out: residual kinase activity in % of maximal activity
CDK5/p35(h) = CDK5/p35(h) (Homo sapiens, UniProt Q00535); assay: as above; format: biochemical; conditions: inhibitor at 1 μM; read-out: residual kinase activity in % of maximal activity
Flt3(h) = Flt3(h) (Homo sapiens, UniProt P36888); assay: as above; format: biochemical; conditions: inhibitor at 1 μM; read-out: residual kinase activity in % of maximal activity
GSK3α(h) = GSK3α(h) (Homo sapiens, UniProt P49840); assay: as above; format: biochemical; conditions: inhibitor at 1 μM; read-out: residual kinase activity in % of maximal activity
GSK3β(h) = GSK3β(h) (Homo sapiens, UniProt P49841); assay: as above; format: biochemical; conditions: inhibitor at 1 μM; read-out: residual kinase activity in % of maximal activity
[1] = tested on: GFP–CaMKII F89G in rat hippocampal neurons; assay: cLTP-induced CaMKII synaptic enrichment in dissociated hippocampal cultures (GFP–CaMKII F89G); format: cell-based; conditions: for CaMKII synaptic enrichment: GFP-CaMKII F89G, individual neurons, sheet 4e
CaMKIIα WT = CaMKIIα WT (Homo sapiens, UniProt Q9UQM7); assay: In vitro kinase reactions with CaMKII WT ± NM-PP1 (pT286, pS831); format: biochemical
Protocol: Fig. 4 The CaMKII mutation F89G impairs ATP binding but binds the ATP-competitive inhibitor NM-PP1 that restores GluN2B binding and LTP-induced synaptic translocation. Data are presented as mean values ± s.e.m. a, Schematic of the pharmacogenetic method of ATP-competitive CaMKII inhibition; enlargement of the CaMKII ATP-binding pocket by the F89G mutation allows for selective binding of the ATP-competitive inhibitor NM-PP1. b, Immunoblots of in vitro kinase reactions at 30 °C including GFP–CaMKII WT, K42M and F89G with GST–GluA1-c tail. […] Correlation indices were measured before and after Ionomycin-induced colocalization of GFP–CaMKII (WT, K42M and F89G) with mCherry-2BC, represented as change in the correlation index (vehicle: n = 22, 17, 12 cells; NM-PP1: n = 20, 24, 13 cells; one-way ANOVA, Tukey’s multiple comparisons test). […] CaMKII synaptic enrichment was measured before and after cLTP (n = 13, 14, 14 cells; RM two-way ANOVA with Šídák’s multiple comparisons test). […] CaMKII synaptic enrichment was measured before and after cLTP (n = 7, 6, 7 cells; RM two-way ANOVA with Šídák’s multiple comparisons test). […]
CaMKII-mediated phosphorylation of GluA1 S831 or GluN2B S1303 was measured by in vitro kinase reaction with a purified GST–GluA1 C-terminal tail or GST-GluN2B C-terminal tail. […]

Chain of GSK3β(h) (P49841 whole entry): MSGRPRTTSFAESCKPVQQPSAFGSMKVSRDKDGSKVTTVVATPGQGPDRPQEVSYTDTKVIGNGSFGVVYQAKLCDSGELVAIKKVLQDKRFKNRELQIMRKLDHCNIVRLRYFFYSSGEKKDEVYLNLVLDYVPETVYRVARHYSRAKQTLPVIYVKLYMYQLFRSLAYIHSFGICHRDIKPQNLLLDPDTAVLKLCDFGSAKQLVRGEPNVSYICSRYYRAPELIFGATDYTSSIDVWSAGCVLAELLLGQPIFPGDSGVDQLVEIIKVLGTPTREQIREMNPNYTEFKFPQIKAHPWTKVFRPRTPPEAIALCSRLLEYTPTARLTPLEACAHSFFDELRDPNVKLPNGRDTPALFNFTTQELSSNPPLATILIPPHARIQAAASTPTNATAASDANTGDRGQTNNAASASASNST
Chain of CDK5/p35(h) (Q00535 whole entry): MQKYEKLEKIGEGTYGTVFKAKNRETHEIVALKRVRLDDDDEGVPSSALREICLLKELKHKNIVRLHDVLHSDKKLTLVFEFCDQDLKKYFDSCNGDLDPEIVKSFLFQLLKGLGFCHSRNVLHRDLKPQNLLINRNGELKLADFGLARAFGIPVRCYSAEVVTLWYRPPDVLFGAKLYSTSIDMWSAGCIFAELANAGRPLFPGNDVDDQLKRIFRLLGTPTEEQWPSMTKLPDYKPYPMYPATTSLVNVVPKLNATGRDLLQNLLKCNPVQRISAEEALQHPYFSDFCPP
Chain of CDK5/p35(h) (Q15078 whole entry partner): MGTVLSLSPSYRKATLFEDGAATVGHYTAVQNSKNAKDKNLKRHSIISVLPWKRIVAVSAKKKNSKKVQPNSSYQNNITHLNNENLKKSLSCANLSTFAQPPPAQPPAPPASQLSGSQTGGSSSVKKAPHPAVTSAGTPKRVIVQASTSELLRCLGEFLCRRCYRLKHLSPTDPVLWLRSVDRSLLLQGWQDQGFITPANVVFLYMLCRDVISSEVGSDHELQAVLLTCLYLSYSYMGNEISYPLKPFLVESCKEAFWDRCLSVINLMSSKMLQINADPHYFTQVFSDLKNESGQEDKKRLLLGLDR
Chain of PKBγ(h) (Q9Y243 whole entry): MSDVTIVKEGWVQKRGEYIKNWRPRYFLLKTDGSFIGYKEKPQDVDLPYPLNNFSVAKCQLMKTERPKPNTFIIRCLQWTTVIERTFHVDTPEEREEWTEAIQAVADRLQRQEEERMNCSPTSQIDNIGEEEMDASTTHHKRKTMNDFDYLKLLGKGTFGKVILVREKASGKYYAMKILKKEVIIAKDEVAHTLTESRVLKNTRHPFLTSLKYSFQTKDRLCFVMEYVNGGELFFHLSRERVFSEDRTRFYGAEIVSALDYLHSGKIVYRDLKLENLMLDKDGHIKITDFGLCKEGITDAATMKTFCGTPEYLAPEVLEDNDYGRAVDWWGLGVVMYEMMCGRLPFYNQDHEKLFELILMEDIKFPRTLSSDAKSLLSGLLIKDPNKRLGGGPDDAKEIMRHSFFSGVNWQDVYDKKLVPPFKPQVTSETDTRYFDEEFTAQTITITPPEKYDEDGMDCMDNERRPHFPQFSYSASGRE
Chain of Aurora-C(h) (Q9UQB9 whole entry): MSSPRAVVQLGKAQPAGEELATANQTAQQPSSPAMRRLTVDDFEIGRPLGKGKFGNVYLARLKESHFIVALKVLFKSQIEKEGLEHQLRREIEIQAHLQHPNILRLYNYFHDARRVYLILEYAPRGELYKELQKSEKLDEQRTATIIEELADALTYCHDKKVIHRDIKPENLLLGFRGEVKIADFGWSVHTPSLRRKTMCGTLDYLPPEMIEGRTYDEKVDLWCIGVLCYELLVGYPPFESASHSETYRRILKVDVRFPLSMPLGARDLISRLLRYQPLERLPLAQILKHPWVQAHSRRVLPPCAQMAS
Chain of GSK3α(h) (P49840 whole entry): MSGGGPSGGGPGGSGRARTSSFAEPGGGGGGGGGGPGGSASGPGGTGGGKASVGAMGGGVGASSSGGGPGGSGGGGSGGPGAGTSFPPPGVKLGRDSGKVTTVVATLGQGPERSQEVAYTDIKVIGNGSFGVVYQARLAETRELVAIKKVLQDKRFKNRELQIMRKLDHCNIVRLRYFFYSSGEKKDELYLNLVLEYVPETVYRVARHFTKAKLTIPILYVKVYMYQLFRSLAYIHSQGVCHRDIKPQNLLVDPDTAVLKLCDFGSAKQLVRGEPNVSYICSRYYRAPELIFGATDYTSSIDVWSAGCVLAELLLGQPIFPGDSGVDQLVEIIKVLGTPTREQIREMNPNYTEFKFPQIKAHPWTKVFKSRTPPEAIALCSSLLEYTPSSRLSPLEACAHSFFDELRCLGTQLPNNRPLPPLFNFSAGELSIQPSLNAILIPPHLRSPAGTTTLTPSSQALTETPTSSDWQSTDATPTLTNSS
Chain of CaMKIIγ(h) (Q13555 whole entry): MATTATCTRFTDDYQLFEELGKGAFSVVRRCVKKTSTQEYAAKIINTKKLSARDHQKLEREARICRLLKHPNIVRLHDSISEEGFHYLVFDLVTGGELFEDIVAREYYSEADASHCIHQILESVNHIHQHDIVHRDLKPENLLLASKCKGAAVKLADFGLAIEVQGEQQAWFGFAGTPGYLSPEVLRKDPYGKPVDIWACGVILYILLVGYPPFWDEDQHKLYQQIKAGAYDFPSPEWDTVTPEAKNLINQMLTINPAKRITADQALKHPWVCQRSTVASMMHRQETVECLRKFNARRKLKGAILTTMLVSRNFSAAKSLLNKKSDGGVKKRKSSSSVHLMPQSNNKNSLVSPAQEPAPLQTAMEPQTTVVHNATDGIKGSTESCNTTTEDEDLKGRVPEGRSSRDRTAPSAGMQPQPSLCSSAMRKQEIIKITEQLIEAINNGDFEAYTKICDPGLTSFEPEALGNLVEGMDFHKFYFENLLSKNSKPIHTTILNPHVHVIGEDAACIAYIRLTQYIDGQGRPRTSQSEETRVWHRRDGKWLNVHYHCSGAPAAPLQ
Chain of MAPK2(h) (P28482 whole entry): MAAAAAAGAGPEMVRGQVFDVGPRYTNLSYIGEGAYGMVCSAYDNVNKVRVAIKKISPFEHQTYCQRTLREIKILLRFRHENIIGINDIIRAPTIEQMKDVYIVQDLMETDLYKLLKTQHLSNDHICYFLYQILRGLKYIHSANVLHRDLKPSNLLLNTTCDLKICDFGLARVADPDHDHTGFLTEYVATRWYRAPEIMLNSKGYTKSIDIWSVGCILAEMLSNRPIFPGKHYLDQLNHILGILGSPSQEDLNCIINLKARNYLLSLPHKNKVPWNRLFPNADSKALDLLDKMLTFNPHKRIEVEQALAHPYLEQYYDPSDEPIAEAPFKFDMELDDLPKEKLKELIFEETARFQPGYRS
Chain of Flt3(h) (P36888 27-993): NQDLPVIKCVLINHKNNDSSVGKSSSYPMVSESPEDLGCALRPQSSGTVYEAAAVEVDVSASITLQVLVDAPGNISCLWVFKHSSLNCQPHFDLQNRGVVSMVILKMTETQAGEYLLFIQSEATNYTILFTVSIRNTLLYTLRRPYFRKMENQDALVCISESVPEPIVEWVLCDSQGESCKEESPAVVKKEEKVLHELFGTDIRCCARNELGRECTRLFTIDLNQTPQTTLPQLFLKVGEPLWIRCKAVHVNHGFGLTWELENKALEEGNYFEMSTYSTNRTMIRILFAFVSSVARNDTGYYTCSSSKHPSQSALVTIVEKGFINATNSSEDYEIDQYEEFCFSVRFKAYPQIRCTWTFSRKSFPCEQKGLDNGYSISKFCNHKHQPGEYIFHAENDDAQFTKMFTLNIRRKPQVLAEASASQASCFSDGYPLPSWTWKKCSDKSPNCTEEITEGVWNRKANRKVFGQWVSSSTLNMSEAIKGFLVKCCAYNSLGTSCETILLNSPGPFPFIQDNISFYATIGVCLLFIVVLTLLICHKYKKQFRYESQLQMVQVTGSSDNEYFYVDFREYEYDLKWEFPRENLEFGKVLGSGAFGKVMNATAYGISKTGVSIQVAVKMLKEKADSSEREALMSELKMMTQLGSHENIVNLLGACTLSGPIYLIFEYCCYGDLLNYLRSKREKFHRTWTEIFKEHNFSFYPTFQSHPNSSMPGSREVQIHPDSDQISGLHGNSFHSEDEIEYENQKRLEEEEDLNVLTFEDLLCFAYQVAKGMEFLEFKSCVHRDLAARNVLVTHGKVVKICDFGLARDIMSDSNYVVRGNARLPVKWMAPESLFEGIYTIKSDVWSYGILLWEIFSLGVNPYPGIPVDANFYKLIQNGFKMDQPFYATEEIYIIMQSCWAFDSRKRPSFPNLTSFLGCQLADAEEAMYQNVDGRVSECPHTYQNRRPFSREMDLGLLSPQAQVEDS

| Compound | remaining activity at 1 µM (MAPK2(h)) | remaining activity at 1 µM (PKCα(h)) | remaining activity at 1 µM (CaMKIIγ(h)) | remaining activity at 1 µM (IGF-1R(h)) | remaining activity at 1 µM (Aurora-C(h)) | remaining activity at 1 µM (PKBγ(h)) | remaining activity at 1 µM (CDK5/p35(h)) | remaining activity at 1 µM (Flt3(h)) | remaining activity at 1 µM (GSK3α(h)) | remaining activity at 1 µM (GSK3β(h)) | effect on impaired LTP-induced synaptic CaMKII localization ([1]; F89G mutant, 10 μM NM-PP1) | CaMKII synaptic enrichment ([1]; NMPP1, before cLTP) | CaMKII synaptic enrichment ([1]; after cLTP in NMPP1) | effect on pT286 for CaMKII WT (CaMKIIα WT) |
| --- | --- | --- | --- | --- | --- | --- | --- | --- | --- | --- | --- | --- | --- | --- |
| NCCNc1cccc(-c2ccnc3[nH]c4ccccc4c23)c1 [AS283] | 97% | 49% | 2% | 110% | 63% | 42% | 33% | 3% | 82% | 87% | – | – | – | – |
| CC(C)(C)n1nc(Cc2cccc3ccccc23)c2c(N)ncnc21 [NM-PP1] | – | – | – | – | – | – | – | – | – | – | rescued | 1.457 and 2.177 and 1.336 and 1.561 and 0.9177 and 1.552 | 2.238 and 2.292 and 2.101 and 2.038 and 1.685 and 2.186 | did not affect |

Source: paper PMC10482691, “LTP induction by structural rather than enzymatic functions of CaMKII” (Nature, 2023)
